Laboratory results: US8158628B2, “Sulfonylated 1,2,3,4-tetrahydropyrrolo[1,2-a]pyrazine compounds and their use as pharmaceuticals” (Gruenenthal GmbH, priority 2009, dated 2012)

Experiments:
B1R of the rat = biological target: T1, B1R of the rat (Rattus norvegicus, UniProt P97583); assay: FLIPR Ca2+ functional assay, B1R antagonism, rat B1R in CHO K1 cells; type: cell-based; settings: test substance 10 μM; rB1R CHO K1 cells; agonist Des-Arg9 bradykinin at EC80; % of maximum achievable inhibition
T1 construct: expressed in transfected cells; host or cells: CHO K1 cells (Chinese hamster ovary), stably transfected
T1 sequence (P97583 1-337): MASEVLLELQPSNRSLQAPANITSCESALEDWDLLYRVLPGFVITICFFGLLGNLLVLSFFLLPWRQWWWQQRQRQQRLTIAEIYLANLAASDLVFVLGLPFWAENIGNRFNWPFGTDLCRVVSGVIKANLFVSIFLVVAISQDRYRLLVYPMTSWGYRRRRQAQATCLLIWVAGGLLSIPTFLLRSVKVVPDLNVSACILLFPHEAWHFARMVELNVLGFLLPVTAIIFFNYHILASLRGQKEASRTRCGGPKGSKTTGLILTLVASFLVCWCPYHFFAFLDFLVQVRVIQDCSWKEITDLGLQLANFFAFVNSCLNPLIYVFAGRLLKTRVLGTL
Procedure, shortened: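 IC50 values come from varied compound concentrations applied 10-20 min before an EC80 agonist challenge, with Des-Arg9 bradykinin for rat and Lys-Des-Arg9 bradykinin for human receptor. Ca2+ influx in Fluo-4-loaded CHO K1 transfectants was measured by FLIPR peak fluorescence. Data are % inhibition vs maximum, n=2-3, N>=2.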

human B1R = biological target: T2, human B1R (Homo sapiens, UniProt P46663); assay: FLIPR Ca2+ functional assay, B1R antagonism, human B1R in CHO K1 cells; type: cell-based; settings: test substance 10 μM; hB1R CHO K1 cells; agonist Lys-Des-Arg9 bradykinin at EC80; % of maximum achievable inhibition
T2 construct: expressed in transfected cells; host or cells: CHO K1 cells (Chinese hamster ovary), stably transfected
T2 sequence (P46663 1-353): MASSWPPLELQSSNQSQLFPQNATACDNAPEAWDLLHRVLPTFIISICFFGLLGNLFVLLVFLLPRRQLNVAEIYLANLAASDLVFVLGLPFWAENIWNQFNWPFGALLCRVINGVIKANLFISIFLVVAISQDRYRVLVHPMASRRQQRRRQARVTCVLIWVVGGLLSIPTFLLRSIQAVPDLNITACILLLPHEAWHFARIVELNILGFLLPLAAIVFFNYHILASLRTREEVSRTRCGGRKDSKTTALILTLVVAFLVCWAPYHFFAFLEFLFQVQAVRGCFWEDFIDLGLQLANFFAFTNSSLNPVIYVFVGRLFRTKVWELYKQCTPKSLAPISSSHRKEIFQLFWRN
Method: The agonistic or antagonistic action of substances on the bradykinin 1 receptor (B1R) of the human and rat species can be quantified with ectopically expressing cell lines (CHO K1 cells) and with the aid of a Ca^2+-sensitive dye (Fluo-4) using a fluorescent imaging plate reader (FLIPR). The value in % activation is based on the Ca^2+ signal after addition of Lys-Des-Arg^9 bradykinin (0.5 nM) or Des-Arg^9 bradykinin (100 nM). Antagonists lead to a suppression of the Ca^2+ influx following administration of the agonist. The % inhibition in comparison with the maximum achievable inhibition is indicated.
1. Functional Investigation on the Bradykinin 1 Receptor (B1R) The agonistic or antagonistic action of substances can be determined on the bradykinin 1 receptor (B1R) of the human and rat species with the following assay. According to this assay, the Ca^2+ inflow through the channel is quantified with the aid of a Ca^2+-sensitive dye (Fluo-4 type, Molecular Probes Europe BV, Leiden, Netherlands) in a fluorescent imaging plate reader (FLIPR, Molecular Devices, Sunnyvale, USA). 2. Method: Chinese hamster ovary cells (CHO K1 cells) which are stably transfected with the human B1R gene (hB1R cells) or the B1R gene of the rat (rB1R cells) are used. For functional investigations these cells are plated-out onto black 96-well plates with a clear base (BD Biosciences, Heidelberg, Germany or Greiner, Frickenhausen, Germany) in a density of 20,000-35,000 cells/well. Overnight the cells are incubated at 37° C. and 5% CO2 in culture medium (hB1R cells: Ham's Nutrient Mixture F12, Gibco Invitrogen GmbH, Karlsruhe, Germany or DMEM, Sigma-Aldrich, Taufkirchen, Germany; rB1R cells: D-MEM/F12, Gibco Invitrogen, Karlsruhe, Germany) with 10 vol. % FBS (foetal bovine serum, Gibco Invitrogen GmbH, Karlsruhe, Germany or PAN Biotech GmbH, Aidenbach, Germany).
On the following day the cells are loaded with 2.13 μM Fluo-4 (Molecular Probes Europe BV, Leiden, Netherlands) in HBSS buffer (Hank's buffered saline solution, Gibco Invitrogen GmbH, Karlsruhe, Germany) with 2.5 mM probenecid (Sigma-Aldrich, Taufkirchen, Germany) and 10 mM HEPES (Sigma-Aldrich, Taufkirchen, Germany) for 60 min at 37° C. The plates are subsequently washed twice with HBSS buffer, and HBSS buffer which additionally contains 0.1% BSA (bovine serum albumin; Sigma-Aldrich, Taufkirchen, Germany), 5.6 mM glucose and 0.05% gelatine (Merck KGaA, Darmstadt, Germany) is added. After a further incubation of 20 minutes at RT, the plates are inserted into the FLIPR for Ca^2+ measurement. Alternatively they are washed with buffer A (15 mM HEPES, 80 mM NaCl, 5 mM KCl, 1.2 mM CaCl2, 0.7 mM MgSO4, 2 g/l glucose, 2.5 mM probenecid) and loaded with buffer A with added 2.5 μM Fluo-4 and 0.025% Pluronic F127 (Sigma-Aldrich, Taufkirchen, Germany). The cells are then washed twice with buffer A and incubated for 30 minutes with buffer A, which additionally contains 0.05% BSA and 0.05% gelatine, at RT and then used for Ca^2+ measurement in the FLIPR. The Ca^2+-dependent fluorescence is measured here before and after addition of substances (λex=488 nm, λem=540 nm). The quantification is performed by measuring the highest fluorescence intensity (FC, fluorescence counts) over time.
The FLIPR protocol comprises two additions of substance. Test substances (10 μM) are first pipetted onto the cells and the Ca^2+ inflow is compared with the control (hB1R: Lys-Des-Arg^9 bradykinin >=50 nM; rB1R: Des-Arg^9 bradykinin 10 μM). The value in % activation based on the Ca^2+ signal after addition of Lys-Des-Arg^9 bradykinin (>=50 nM) or Des-Arg^9 bradykinin (10 μM) is obtained therefrom. After incubation for 10-20 minutes, Lys-Des-Arg^9 bradykinin (hB1R) or Des-Arg^9 bradykinin (rB1R) is applied in the EC80 concentration and the inflow of Ca^2+ is likewise determined.
Antagonists lead to a suppression of the Ca^2+ inflow. The % inhibition in comparison with the maximum achievable inhibition is calculated. […]

SMILES | inhibition at 10 µM (B1R of the rat) [%] | inhibition at 10 µM (human B1R) [%]
Cc1ccc(S(=O)(=O)N2CCn3cccc3C2CC(=O)NC2CCc3cc(CN4CCCCC4)ccc3C2)cc1 (centres unmarked) [Example 29, N-(6-(piperidin-1-ylmethyl)-1,2,3,4-tetrahydronaphthalen-2-yl)-2-(2-tosyl-1,2,3,4-tetrahydropyrrolo[1,2-a]pyrazin-1-yl)acetamide] | 102 | 99.8
Cc1ccc(S(=O)(=O)N2CCn3cccc3C2CC(=O)NC2CCc3cc(CNC(C)(C)C)ccc3C2)cc1Cl (centres unmarked) [Example 60, N-[6-[(tert-Butylamino)-methyl]-1,2,3,4-tetrahydro-naphthalen-2-yl]-2-[2-[(3-chloro-4-methyl-phenyl)sulfonyl]-1,2,3,4-tetrahydro-pyrrolo[1,2-a]pyrazin-1-yl]-acetamide] | 99.5 | 99.8
CNCc1ccc2c(c1)CCC(NC(=O)CC1c3cccn3CCN1S(=O)(=O)c1ccc(C)cc1)C2 (centres unmarked) [Example 140, N-[6-(Methylamino-methyl)-1,2,3,4-tetrahydro-naphthalen-2-yl]-2-[2-(p-tolylsulfonyl)-1,2,3,4-tetrahydro-pyrrolo[1,2-a]pyrazin-1-yl]-acetamide] | 102 | 96.1
COc1ccc2cc(S(=O)(=O)N3CCn4cccc4C3CC(=O)NC3CCCc4cc(CN5CCN(C)CC5)ccc43)ccc2c1 (centres unmarked) [Example 117, 2-[2-[(6-Methoxy-naphthalen-2-yl)sulfonyl]-1,2,3,4-tetrahydro-pyrrolo[1,2-a]pyrazin-1-yl]-N-[6-[(4-methyl-piperazin-1-yl)-methyl]-1,2,3,4-tetrahydro-naphthalen-1-yl]-acetamide] | 98.8 | 100
COc1cc(C)c(S(=O)(=O)N2CCn3cccc3C2COCC(=O)N2CCC3(CC2)CCN(c2ccncc2)CC3)c(C)c1 (centres unmarked) [Example 10, 2-((2-(4-Methoxy-2,6-dimethylphenylsulfonyl)-1,2,3,4-tetrahydropyrrolo[1,2-a]pyrazin-1-yl)methoxy)-1-(9-(pyridin-4-yl)-3,9-diazaspiro[5.5]undecan-3-yl)ethanone] | 103 | 99.8
Cc1ccc(S(=O)(=O)N2CCn3cccc3C2CC(=O)NC2CCCc3cc(CN4C5CCCC4CC5)ccc32)cc1Cl (centres unmarked) [Example 110, N-[6-(8-Azabicyclo[3.2.1]octan-8-yl-methyl)-1,2,3,4-tetrahydro-naphthalen-1-yl]-2-[2-[(3-chloro-4-methyl-phenyl)sulfonyl]-1,2,3,4-tetrahydro-pyrrolo[1,2-a]pyrazin-1-yl]-acetamide] | 98.8 | 99.9
CC(C)(C)NCc1ccc2c(c1)CCCC2NC(=O)CC1c2cccn2CCN1S(=O)(=O)c1cccc(C(F)(F)F)c1 (centres unmarked) [Example 82, N-[6-[(tert-Butylamino)-methyl]-1,2,3,4-tetrahydro-naphthalen-1-yl]-2-[2-[[3-(trifluoromethyl)phenyl]sulfonyl]-1,2,3,4-tetrahydro-pyrrolo[1,2-a]pyrazin-1-yl]-acetamide] | 101 | 99.9
O=C(COCC1c2cccn2CCN1S(=O)(=O)c1ccccc1C(F)(F)F)N1CCC2(CC1)CCN(c1ccncc1)CC2 (centres unmarked) [Example 11, 1-(9-(Pyridin-4-yl)-3,9-diazaspiro[5.5]undecan-3-yl)-2-((2-(2-(trifluoromethyl)phenylsulfonyl)-1,2,3,4-tetrahydropyrrolo[1,2-a]pyrazin-1-yl)methoxy)ethanone] | 98.1 | 99.9
Cc1cccc(Cl)c1S(=O)(=O)N1CCn2cccc2C1COCC(=O)N(C)CCC1CCN(c2ccncc2)CC1 (centres unmarked) [Example 16, 2-((2-(2-Chloro-6-methylphenylsulfonyl)-1,2,3,4-tetrahydropyrrolo[1,2-a]pyrazin-1-yl)methoxy)-N-methyl-N-(2-(1-(pyridin-4-yl)piperidin-4-yl)ethyl)acetamide] | 98.5 | 99.9
CCC(C)NCc1ccc2c(c1)CCCC2NC(=O)CC1c2cccn2CCN1S(=O)(=O)c1ccc(C)cc1 (centres unmarked) [Example 126, N-[6-[(1-Methyl-propylamino)-methyl]-1,2,3,4-tetrahydro-naphthalen-1-yl]-2-[2-(p-tolylsulfonyl)-1,2,3,4-tetrahydro-pyrrolo[1,2-a]pyrazin-1-yl]-acetamide] | 102 | 99.9
Cc1ccc(S(=O)(=O)N2CCn3cccc3C2CC(=O)N[C@H](C)c2ccc(CNC(C)(C)C)cc2)cc1 (stereo partly drawn) [Example 46, N-[(1R)-1-[4-[(tert-Butylamino)-methyl]-phenyl]-ethyl]-2-[2-(p-tolylsulfonyl)-1,2,3,4-tetrahydro-pyrrolo[1,2-a]pyrazin-1-yl]-acetamide] | 29 | 55.8
COc1cc(C)c(S(=O)(=O)N2CCn3cccc3C2COCC(=O)N2CCC(Oc3ccncc3)C2)c(C)c1 (centres unmarked) [Example 38, 2-[[2-[(4-Methoxy-2,6-dimethyl-phenyl)sulfonyl]-1,2,3,4-tetrahydro-pyrrolo[1,2-a]pyrazin-1-yl]-methoxy]-1-(3-pyridin-4-yloxy-pyrrolidin-1-yl)-ethanone] | 104 | 98.1
COc1ccc2cc(S(=O)(=O)N3CCn4cccc4C3CC(=O)NC3CCc4cc(CN5CCN(C)CC5)ccc4C3)ccc2c1 (centres unmarked) [Example 99, 2-[2-[(6-Methoxy-naphthalen-2-yl)sulfonyl]-1,2,3,4-tetrahydro-pyrrolo[1,2-a]pyrazin-1-yl]-N-[6-[(4-methyl-piperazin-1-yl)-methyl]-1,2,3,4-tetrahydro-naphthalen-2-yl]-acetamide] | 101 | 99.8
